# pKi: −log10 of the molar value. Values joined by “and” are separate entries in the source; they are usually repeats but may differ in a detail not shown here. Identical values can stand only once.
# Experiments:
# [1] = biological target: 5-hydroxytryptamine receptor 2C (Sus scrofa, UniProt G7ZKZ7)
# [2] = biological target: T1, Alpha-1A adrenergic receptor (Rattus norvegicus, UniProt P43140)
# T1 sequence (P43140 whole entry): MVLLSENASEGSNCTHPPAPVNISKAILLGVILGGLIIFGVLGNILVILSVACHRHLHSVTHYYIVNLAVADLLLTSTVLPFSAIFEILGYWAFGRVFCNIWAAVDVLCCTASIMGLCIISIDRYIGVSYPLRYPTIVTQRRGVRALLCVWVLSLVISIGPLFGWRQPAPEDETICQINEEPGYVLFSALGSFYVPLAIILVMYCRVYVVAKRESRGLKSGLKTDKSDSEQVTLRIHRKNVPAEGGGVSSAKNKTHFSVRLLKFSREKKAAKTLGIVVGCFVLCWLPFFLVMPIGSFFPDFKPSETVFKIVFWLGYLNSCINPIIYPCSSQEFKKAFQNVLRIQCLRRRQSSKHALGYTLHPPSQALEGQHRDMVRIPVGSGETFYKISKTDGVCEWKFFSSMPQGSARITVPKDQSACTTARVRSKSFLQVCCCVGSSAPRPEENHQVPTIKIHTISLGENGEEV
# [3] = biological target: D(1A) dopamine receptor (Homo sapiens, UniProt P21728)
# [4] = biological target: D(3) dopamine receptor (Homo sapiens, UniProt P35462)
# [5] = biological target: 5-hydroxytryptamine receptor 2C (Homo sapiens, UniProt P28335)
# [6] = biological target: T2, D(4) dopamine receptor (Homo sapiens, UniProt P21917)
# T2 sequence (P21917 whole entry): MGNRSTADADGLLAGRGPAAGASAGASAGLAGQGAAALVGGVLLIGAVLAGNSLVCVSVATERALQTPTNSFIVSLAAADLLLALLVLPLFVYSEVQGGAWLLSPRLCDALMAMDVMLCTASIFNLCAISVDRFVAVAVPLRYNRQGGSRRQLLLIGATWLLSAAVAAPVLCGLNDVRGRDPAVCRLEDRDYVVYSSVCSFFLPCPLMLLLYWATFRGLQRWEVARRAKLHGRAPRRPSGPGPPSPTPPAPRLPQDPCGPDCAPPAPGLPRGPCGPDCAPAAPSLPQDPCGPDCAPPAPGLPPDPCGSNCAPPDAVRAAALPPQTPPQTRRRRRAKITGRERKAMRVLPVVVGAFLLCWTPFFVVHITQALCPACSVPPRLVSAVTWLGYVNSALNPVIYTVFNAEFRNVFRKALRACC
# [7] = biological target: Sigma non-opioid intracellular receptor 1 (Cavia porcellus, UniProt Q60492)
# [8] = biological target: D(2) dopamine receptor (Rattus norvegicus, UniProt P61169)
# [9] = biological target: T3, Alpha-2A adrenergic receptor [16-465] (Rattus norvegicus, UniProt P22909)
# T3 construct: 16-465
# T3 sequence (P22909 whole entry): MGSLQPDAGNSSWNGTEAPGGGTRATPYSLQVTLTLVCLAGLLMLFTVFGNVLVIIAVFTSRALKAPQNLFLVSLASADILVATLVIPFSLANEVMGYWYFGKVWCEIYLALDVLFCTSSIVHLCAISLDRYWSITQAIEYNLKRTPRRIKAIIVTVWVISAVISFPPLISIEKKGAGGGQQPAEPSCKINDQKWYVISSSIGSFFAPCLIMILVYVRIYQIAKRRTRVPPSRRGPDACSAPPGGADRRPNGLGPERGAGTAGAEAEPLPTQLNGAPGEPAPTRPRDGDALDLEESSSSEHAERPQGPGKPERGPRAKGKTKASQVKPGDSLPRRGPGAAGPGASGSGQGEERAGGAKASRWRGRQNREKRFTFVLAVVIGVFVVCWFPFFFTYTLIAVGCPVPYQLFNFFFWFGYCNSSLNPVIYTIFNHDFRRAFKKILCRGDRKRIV
# [10] = biological target: D(1B) dopamine receptor (Homo sapiens, UniProt P21918)
# [11] = biological target: D(2) dopamine receptor (Homo sapiens, UniProt P14416)
# [12] = biological target: 5-hydroxytryptamine receptor 2A (Rattus norvegicus, UniProt P14842)
# [13] = biological target: 5-hydroxytryptamine receptor 2B (Homo sapiens, UniProt P41595)
# [14] = biological target: 5-hydroxytryptamine receptor 1B (Homo sapiens, UniProt P28222)
# [15] = biological target: 5-hydroxytryptamine receptor 1D (Homo sapiens, UniProt P28221)
# [16] = biological target: T4, 5-hydroxytryptamine receptor 1A (Rattus norvegicus, UniProt P19327)
# T4 sequence (P19327 whole entry): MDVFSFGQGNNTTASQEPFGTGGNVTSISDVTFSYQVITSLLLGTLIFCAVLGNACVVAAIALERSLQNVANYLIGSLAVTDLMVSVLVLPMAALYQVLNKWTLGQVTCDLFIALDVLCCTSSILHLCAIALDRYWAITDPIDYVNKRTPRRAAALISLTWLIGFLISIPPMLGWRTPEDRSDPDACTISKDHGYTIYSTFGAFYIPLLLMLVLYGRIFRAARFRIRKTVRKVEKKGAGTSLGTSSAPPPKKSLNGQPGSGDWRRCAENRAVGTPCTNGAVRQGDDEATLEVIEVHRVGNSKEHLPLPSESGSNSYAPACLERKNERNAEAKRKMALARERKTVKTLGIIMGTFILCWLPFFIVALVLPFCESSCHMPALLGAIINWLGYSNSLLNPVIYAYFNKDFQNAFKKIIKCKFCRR
# [17] = biological target: 5-hydroxytryptamine receptor 2A (Homo sapiens, UniProt P28223)
# [18] = biological target: 5-hydroxytryptamine receptor 1B (Cavia porcellus, UniProt O08892)
# [19] = biological target: 5-hydroxytryptamine receptor 1A (Homo sapiens, UniProt P08908)
# [20] = biological target: 5-hydroxytryptamine receptor 3A (Homo sapiens, UniProt P46098)
# [21] = biological target: Muscarinic acetylcholine receptor M1 (Homo sapiens, UniProt P11229)
# [22] = biological target: D(1A) dopamine receptor (Rattus norvegicus, UniProt P18901)
# Sequence of D(2) dopamine receptor (Rattus norvegicus, UniProt P61169) (P61169 whole entry): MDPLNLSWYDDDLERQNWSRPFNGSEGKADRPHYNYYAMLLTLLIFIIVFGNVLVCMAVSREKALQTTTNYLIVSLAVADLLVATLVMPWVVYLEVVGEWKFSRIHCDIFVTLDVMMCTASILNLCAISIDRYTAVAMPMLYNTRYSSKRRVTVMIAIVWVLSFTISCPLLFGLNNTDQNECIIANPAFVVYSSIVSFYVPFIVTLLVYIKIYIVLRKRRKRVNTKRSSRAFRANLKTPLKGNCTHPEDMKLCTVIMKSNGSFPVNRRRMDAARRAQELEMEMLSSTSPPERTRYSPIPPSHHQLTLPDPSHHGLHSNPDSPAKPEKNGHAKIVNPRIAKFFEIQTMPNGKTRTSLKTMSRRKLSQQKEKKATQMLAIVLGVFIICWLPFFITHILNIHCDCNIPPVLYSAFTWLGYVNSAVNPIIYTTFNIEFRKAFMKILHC
# Sequence of D(1B) dopamine receptor (P21918 whole entry): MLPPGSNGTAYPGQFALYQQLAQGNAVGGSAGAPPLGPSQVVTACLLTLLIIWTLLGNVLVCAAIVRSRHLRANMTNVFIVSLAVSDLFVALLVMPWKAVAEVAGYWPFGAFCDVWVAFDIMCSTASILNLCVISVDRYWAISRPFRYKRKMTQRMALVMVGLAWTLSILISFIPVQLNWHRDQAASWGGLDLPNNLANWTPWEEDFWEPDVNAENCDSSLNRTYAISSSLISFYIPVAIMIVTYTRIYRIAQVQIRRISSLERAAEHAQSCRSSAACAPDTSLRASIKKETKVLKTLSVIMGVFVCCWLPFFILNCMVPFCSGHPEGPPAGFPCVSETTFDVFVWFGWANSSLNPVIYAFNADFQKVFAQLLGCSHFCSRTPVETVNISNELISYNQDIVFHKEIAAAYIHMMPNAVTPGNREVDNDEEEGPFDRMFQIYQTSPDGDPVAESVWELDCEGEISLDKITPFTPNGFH
# Sequence of 5-hydroxytryptamine receptor 2B (P41595 whole entry): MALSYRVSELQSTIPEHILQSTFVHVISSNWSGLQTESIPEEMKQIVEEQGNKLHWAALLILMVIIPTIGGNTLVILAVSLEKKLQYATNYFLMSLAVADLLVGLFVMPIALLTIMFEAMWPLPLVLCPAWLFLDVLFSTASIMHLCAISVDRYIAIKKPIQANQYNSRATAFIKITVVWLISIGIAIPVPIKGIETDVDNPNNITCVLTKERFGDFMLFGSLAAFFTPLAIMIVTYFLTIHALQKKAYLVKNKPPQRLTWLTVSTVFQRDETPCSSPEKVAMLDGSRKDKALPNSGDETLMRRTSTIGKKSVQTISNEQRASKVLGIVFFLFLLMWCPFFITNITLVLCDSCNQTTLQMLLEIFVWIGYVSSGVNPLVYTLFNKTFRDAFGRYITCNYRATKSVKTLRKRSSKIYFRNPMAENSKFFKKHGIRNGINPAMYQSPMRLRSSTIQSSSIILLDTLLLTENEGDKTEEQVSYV
# Sequence of 5-hydroxytryptamine receptor 1D (P28221 whole entry): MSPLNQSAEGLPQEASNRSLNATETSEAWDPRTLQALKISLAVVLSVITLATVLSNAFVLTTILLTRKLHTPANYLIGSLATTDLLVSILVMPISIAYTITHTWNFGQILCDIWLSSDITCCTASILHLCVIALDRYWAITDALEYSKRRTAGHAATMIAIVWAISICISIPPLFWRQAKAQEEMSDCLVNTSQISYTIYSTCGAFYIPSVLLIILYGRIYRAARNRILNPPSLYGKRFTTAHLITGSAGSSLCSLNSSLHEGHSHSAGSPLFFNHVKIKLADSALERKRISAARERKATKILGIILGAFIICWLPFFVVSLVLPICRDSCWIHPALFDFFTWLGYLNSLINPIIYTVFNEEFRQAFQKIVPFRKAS
# Sequence of D(3) dopamine receptor (P35462 as listed by the source): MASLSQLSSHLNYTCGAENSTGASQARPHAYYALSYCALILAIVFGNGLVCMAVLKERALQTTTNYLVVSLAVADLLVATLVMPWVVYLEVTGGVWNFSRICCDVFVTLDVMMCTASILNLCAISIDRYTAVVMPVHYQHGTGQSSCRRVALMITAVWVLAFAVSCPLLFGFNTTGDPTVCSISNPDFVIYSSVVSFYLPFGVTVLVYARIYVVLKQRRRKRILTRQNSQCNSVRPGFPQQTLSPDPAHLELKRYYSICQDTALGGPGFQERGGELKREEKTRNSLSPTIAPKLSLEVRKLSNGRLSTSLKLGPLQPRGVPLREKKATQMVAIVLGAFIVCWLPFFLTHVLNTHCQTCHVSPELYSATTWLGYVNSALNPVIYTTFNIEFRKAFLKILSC
# Sequence of D(2) dopamine receptor (Homo sapiens, UniProt P14416) (P14416 whole entry): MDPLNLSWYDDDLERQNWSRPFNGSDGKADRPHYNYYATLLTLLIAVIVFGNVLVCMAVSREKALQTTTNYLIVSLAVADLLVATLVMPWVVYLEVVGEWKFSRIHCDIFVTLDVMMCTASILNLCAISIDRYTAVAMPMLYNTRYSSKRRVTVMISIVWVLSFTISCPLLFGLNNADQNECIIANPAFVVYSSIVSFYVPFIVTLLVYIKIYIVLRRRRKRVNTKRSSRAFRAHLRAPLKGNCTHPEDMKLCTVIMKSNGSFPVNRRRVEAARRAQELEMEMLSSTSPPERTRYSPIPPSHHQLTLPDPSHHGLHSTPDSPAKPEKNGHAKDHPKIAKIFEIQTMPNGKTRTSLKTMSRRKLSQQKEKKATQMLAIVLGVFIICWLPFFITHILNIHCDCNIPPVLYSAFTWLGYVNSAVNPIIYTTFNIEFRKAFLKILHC
# Sequence of 5-hydroxytryptamine receptor 2A (Rattus norvegicus, UniProt P14842) (P14842 whole entry): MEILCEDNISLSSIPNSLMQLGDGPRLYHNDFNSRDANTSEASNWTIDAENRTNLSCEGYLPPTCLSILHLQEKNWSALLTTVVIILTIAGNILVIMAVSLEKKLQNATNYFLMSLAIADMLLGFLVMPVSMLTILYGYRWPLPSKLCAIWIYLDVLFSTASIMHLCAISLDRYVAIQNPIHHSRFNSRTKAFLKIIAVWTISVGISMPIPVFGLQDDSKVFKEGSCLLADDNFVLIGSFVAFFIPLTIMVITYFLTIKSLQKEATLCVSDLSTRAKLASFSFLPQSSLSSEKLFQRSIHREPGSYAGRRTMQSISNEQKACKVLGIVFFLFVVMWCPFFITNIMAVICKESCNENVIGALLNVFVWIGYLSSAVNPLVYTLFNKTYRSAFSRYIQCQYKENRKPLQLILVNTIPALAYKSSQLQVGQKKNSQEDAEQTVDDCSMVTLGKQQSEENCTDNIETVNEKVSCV
# Sequence of 5-hydroxytryptamine receptor 1B (Homo sapiens, UniProt P28222) (P28222 whole entry): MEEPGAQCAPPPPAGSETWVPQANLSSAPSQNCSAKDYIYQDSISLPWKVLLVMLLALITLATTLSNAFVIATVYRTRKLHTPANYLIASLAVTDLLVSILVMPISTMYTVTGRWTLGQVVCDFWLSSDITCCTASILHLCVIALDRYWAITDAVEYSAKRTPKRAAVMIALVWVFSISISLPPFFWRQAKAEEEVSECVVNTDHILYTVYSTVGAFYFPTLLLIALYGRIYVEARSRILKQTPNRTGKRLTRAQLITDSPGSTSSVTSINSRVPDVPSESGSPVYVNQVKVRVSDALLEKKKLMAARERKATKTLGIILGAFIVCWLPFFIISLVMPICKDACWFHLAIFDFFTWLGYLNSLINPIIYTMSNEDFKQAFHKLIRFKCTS
# Sequence of 5-hydroxytryptamine receptor 2C (Sus scrofa, UniProt G7ZKZ7) (G7ZKZ7 whole entry): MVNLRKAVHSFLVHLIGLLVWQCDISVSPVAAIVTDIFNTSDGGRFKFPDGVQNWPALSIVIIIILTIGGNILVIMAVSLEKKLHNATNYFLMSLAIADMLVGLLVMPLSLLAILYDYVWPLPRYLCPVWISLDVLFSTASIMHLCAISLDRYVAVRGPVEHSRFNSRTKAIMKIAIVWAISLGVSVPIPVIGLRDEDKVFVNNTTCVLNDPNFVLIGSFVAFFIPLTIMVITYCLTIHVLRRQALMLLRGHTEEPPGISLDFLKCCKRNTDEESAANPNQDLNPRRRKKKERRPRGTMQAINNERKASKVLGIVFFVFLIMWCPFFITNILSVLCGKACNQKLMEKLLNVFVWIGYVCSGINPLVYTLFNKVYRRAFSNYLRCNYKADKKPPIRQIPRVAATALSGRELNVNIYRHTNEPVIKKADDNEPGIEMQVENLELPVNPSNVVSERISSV
# Sequence of D(1A) dopamine receptor (Homo sapiens, UniProt P21728) (P21728 whole entry): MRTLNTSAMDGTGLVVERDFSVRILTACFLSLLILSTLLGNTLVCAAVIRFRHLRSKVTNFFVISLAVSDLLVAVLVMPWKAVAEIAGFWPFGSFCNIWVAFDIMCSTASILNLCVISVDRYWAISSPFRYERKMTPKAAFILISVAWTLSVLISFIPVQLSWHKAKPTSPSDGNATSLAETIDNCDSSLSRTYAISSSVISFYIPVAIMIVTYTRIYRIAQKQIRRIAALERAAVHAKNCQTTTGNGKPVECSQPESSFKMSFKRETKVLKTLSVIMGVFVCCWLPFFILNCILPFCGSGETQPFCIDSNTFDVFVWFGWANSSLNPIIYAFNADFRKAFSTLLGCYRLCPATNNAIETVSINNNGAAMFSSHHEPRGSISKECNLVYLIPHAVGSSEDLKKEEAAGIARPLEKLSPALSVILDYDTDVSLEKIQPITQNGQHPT
# Sequence of 5-hydroxytryptamine receptor 2A (Homo sapiens, UniProt P28223) (P28223 whole entry): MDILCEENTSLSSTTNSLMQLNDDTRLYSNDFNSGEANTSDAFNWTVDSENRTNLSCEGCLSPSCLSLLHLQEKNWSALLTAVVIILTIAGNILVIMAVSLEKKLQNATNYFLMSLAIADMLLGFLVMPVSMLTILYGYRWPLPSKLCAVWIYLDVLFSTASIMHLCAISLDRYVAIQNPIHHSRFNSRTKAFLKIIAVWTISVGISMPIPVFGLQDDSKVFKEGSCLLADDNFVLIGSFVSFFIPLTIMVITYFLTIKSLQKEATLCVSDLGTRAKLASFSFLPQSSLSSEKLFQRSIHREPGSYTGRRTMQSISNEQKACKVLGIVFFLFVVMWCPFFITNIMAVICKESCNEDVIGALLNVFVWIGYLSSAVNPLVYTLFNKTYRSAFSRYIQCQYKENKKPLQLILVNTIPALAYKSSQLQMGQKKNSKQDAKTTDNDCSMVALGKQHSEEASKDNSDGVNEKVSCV
SMILES,pKi [1],pKi [2],pKi [3],pKi [4],pKi [5],pKi [6],pKi [7],pKi [8],pKi [9],pKi [10],pKi [11],pKi [12],pKi [13],pKi [14],pKi [15],pKi [16],pKi [17],other results
CCCN(CCC)C1CCc2cc(CS(=O)(=O)c3ccc(OC)cc3)ccc2C1 (stereo not given) [GR218231],6.00,6.00,6.00,9.00 and 8.87,6.00,< 5.00,6.80,7.10,6.40,6.00,7.20 and 6.86,6.00,6.00,6.00,6.00,6.30,6.00,–
"OC1(c2ccc(Cl)cc2)CCN(Cc2c[nH]c3ccccc23)CC1 [L741,626]",5.40,6.60,–,7.20 and 7.06,–,6.50,–,8.20,5.90,6.20,–,6.00,6.20,6.00,6.00,5.40,–,–
N#Cc1ccc2c(c1)[C@H]1CN(CCCCNC(=O)c3ccc(-c4ccccc4)cc3)C[C@@H]1CO2 [S33084],–,6.90,6.30,9.60 and 9.40,7.10,5.70,6.00,7.30,6.00,5.90,7.28,6.00,6.80,6.10,6.90,6.90,6.00,pKi [18]: 6.00; pKi [19]: 6.00; pKi [20]: 6.00; pKi [21]: 6.40; pKi [22]: 6.00
